The term IC50 denotes the concentration that inhibits the measured activity by half. A higher IC50 goes with weaker potency. As usually defined, the inhibition is the relative decrease from the control value, in per cent. A lower inhibition goes with a response near the control.

The structures appear in SMILES notation.

The target of experiment [1] is T1, DNA topoisomerase 2-alpha (Homo sapiens, UniProt P11388). Nature of the experiment: Inhibition of ATPase activity of human topoisomerase 2 alpha.
T1 sequence (P11388 whole entry): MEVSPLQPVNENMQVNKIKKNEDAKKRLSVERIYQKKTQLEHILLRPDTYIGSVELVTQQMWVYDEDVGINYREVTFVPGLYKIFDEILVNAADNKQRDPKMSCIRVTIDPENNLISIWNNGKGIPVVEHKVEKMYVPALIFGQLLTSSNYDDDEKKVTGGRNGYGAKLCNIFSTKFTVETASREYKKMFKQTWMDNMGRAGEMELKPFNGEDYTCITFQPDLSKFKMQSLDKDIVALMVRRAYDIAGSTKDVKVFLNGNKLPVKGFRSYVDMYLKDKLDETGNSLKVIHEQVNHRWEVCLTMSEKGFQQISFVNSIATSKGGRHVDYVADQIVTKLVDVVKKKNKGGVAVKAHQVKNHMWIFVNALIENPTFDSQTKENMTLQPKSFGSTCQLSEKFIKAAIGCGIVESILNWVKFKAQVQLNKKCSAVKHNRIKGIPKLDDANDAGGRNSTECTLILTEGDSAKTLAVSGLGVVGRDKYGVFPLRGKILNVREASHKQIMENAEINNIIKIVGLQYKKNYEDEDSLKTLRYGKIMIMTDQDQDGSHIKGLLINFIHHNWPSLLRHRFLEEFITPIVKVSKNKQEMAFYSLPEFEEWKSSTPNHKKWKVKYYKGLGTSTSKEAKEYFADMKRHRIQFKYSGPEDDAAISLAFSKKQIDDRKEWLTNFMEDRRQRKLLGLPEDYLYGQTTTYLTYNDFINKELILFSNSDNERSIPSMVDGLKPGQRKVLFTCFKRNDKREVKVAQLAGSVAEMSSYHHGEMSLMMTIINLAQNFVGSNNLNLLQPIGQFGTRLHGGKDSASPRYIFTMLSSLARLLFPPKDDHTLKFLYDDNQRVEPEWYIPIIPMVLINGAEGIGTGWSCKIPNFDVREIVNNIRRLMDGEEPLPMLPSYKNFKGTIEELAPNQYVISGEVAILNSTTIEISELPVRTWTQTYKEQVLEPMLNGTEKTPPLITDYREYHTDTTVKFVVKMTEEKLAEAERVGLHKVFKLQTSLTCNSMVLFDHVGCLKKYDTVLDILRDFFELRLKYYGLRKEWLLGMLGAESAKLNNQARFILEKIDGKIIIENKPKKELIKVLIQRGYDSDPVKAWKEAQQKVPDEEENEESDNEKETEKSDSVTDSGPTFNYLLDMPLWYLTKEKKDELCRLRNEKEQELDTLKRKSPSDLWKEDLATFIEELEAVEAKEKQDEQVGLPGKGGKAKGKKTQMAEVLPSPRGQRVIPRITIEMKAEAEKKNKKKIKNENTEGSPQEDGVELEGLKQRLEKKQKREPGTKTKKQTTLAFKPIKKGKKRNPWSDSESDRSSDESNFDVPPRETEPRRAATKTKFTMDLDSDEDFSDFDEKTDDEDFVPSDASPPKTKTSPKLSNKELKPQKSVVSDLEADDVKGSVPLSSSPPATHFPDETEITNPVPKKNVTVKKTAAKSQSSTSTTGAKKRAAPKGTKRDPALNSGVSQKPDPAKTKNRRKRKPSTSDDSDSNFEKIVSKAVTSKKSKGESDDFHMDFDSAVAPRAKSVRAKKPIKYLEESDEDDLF
Experiment [2] deals with T1, DNA topoisomerase 2-alpha. Briefly: Inhibition of ATPase activity of human topoisomerase 2 alpha at 10 uM.

Consider `CC(C)(C)Nc1nc(Nc2ccc3ncsc3c2)nc2[nH]cnc12`, for which half-maximal inhibition in experiment [1] (IC50) was put at 1700 nM.
In experiment [2], `Cn1cnc2c(NC(C)(C)C)nc(Nc3ccc4ncsc4c3)nc21` displayed an inhibition of 7%.

For the origin of these results see ChEMBL document CHEMBL1152402, “Discovery of a new class of catalytic topoisomerase II inhibitors targeting the ATP-binding site by structure based design. Part I” (Bioorg Med Chem Lett, 2009).
